How the values were obtained:
[1] = Stability investigation of the lyophilisate (visual inspection, reverse HPLC); assay type: physicochemical
Description: For that the lyophilisate was stored up to 24 months at 2 to 8° C. and up to 6 months at 25° C. at 60% relative humidity. Stability was investigated at different time points during that period. In particular the appearance, contents, as well as purity of the cyclic peptides were investigated. For that laboratory-common analytical processes were used, such as e.g. visual inspection and reverse HPLC.

[2] = Stability of the aqueous solution before inhalation (visual inspection, reverse HPLC); assay type: physicochemical
Description: For that reason the stability of an aqueous solution was investigated exemplarily. The ready to use-solution therefore was stored either in a syringe commonly used in laboratory, at 2 to 8° C. for 7 days, or in a container of a nebulizer at 25° C. for 24 hours. […] The methods used therefore were analytical methods commonly used in laboratory, as for example the visual inspection, as well as analysis by means of reverse HPLC.

[3] = laboratory syringe, 2 to 8° C., T = 0 to 7 days
[4] = storage container of a nebulizer, 25° C., T = 0 to 24 hours

## C[C@@H]1NC(=O)CNC(=O)[C@H](CCC(=O)O)NC(=O)[C@@H]2CCCN2C(=O)[C@H]([C@@H](C)O)NC(=O)[C@H](CCC(=O)O)NC(=O)[C@H](CCCNC(=N)N)NC(=O)[C@H](CCC(N)=O)NC(=O)CNC(=O)[C@@H](N)CSSC[C@@H](C(=O)O)NC(=O)[C@H](Cc2ccc(O)cc2)NC(=O)[C@H](Cc2c[nH]c3ccccc23)NC(=O)[C@@H]2CCCN2C(=O)[C@H](CCCCN)NC(=O)[C@H](C)NC(=O)[C@H](CCC(=O)O)NC1=O [SEQ ID NO: 1]
[1]; storage 2-8° C., T = 0
  Amount/Contents of lyophilisate: 100%
  Purity of lyophilisate (stability study): 96%
[1]; storage 2-8° C., T = 0 to T = 24 M
  Appearence of lyophilisate: white powder
[1]; storage 2-8° C., T = 24 M
  Amount/Contents of lyophilisate: 99%
  Purity of lyophilisate (stability study): 96%
[1]; storage 25° C./60% rH, T = 0
  Amount/Contents of lyophilisate: 100%
  Purity of lyophilisate (stability study): 96%
[1]; storage 25° C./60% rH, T = 0 to T = 6 M
  Appearence of lyophilisate: white powder
[1]; storage 25° C./60% rH, T = 6 M
  Amount/Contents of lyophilisate: 99%
  Purity of lyophilisate (stability study): 95%
[2]; laboratory syringe, 2 to 8° C., T = 0
  Purity of aqueous solution (stability study): 96.3%
[2]; [3]
  Amount/contents of aqueous solution: 25 mg/mL
  Appearance of aqueous solution: clear solution
[2]; laboratory syringe, 2 to 8° C., T = 7 days
  Purity of aqueous solution (stability study): 96.2%
[2]; storage container of a nebulizer, 25° C., T = 0
  Purity of aqueous solution (stability study): 96.6%
[2]; [4]
  Amount/contents of aqueous solution: 25 mg/mL
  Appearance of aqueous solution: clear solution
[2]; storage container of a nebulizer, 25° C., T = 24 hours
  Purity of aqueous solution (stability study): 96.5%
